# Reference: PMC8061081 (Fitoterapia, 2021)
# Like-named read-outs stand apart in the source and are kept apart here.
# Tests used:
# SARS-CoV-2 3CL^pro [1] = molecular target: T1, SARS-CoV-2 3CL^pro (Severe acute respiratory syndrome coronavirus 2, UniProt P0DTD1); assay: biochemical
# SARS-CoV-2 3CL^pro [2] = molecular target: T1, SARS-CoV-2 3CL^pro; assay: Inhibition kinetics, determination of inhibition constants; format: biochemical; conditions: inhibition kinetic plots and Lineweaver-Burk plots
SMILES,IC50 (SARS-CoV-2 3CL^pro [1]),further results
CCCCCCCCCCCCCc1cccc(O)c1C(=O)O [GA C13:0],,IC50 (SARS-CoV-2 3CL^pro [1]; pH 7.4): 3.57 ± 0.9 µM
CCCCCCCCCCCCCCCc1cccc(O)c1C(=O)O [GA C15:0],,Inhibition mode (SARS-CoV-2 3CL^pro [2]): reversible and mixed-inhibition
CCCCCC/C=C\CCCCCCCc1cccc(O)c1C(=O)O [GA C15:1],,IC50 (SARS-CoV-2 3CL^pro [1]; pH 7.4): 3.45 ± 0.78 µM
CCCCCC/C=C\CCCCCCCCCc1cccc(O)c1C(=O)O [GA C17:1],,IC50 (SARS-CoV-2 3CL^pro [1]; pH 7.4): 1.19 ± 0.15 µM; Inhibition mode (SARS-CoV-2 3CL^pro [2]): reversible and mixed-inhibition
O=c1cc(-c2ccc(O)c(-c3c(O)cc(O)c4c(=O)cc(-c5ccc(O)cc5)oc34)c2)oc2cc(O)cc(O)c12 [amentoflavone],8.65 ± 3.72 µM,
CC(C)(C)[C@]1(O)CC2OC(=O)CC23C(=O)OC2OC(=O)[C@H](O)C231 (some centres unmarked) [bilobalide],> 100 µM,
COc1ccc(-c2cc(=O)c3c(O)cc(O)cc3o2)cc1-c1c(O)cc(O)c2c(=O)cc(-c3ccc(O)cc3)oc12 [bilobetin],11.2 ± 2.41 µM,
COc1cc(O)c2c(=O)cc(-c3ccc(O)cc3)oc2c1 [genkwanin],10.6 ± 1.89 µM,
COc1cc(O)c2c(=O)cc(-c3ccc(OC)c(-c4c(O)cc(O)c5c(=O)cc(-c6ccc(O)cc6)oc45)c3)oc2c1 [ginkgetin],2.98 ± 0.86 µM,
C[C@@H]1C(=O)O[C@H]2C[C@@]34[C@H]5C[C@@H](C(C)(C)C)[C@]36[C@@H](OC(=O)[C@@H]6O)O[C@@]4(C(=O)O5)[C@]21O [ginkgolide A],> 100 µM,
COc1ccc(-c2cc(=O)c3c(O)cc(O)c(-c4cc(-c5cc(=O)c6c(O)cc(O)cc6o5)ccc4OC)c3o2)cc1 [isoginkgetin],2.33 ± 0.46 µM,
COc1cc(-c2oc3cc(O)cc(O)c3c(=O)c2O)ccc1O [isorhamnetin],31.6 ± 16.6 µM,
O=c1c(O)c(-c2ccc(O)cc2)oc2cc(O)cc(O)c12 [kaempferol],> 100 µM,
C[C@@H]1O[C@@H](Oc2c(-c3ccc(O)c(O)c3)oc3cc(O)cc(O)c3c2=O)[C@H](O)[C@H](O)[C@H]1O [quercitrin],> 100 µM,
COc1ccc(-c2cc(=O)c3c(O)cc(O)c(-c4cc(-c5cc(=O)c6c(O)cc(OC)cc6o5)ccc4OC)c3o2)cc1 [sciadopitysin],,"IC50 (SARS-CoV-2 3CL^pro [1]; 3CLpro 4 μg/mL, preincubation 37 °C 40 min, substrate 20 μM, PBS pH 7.4): 1.09 ± 0.19 µM; Inhibition mode (SARS-CoV-2 3CL^pro [2]): reversible and mixed-inhibition"
